Experimental data published in patent US10894807B2 (Siemens Medical Solutions USA, Inc., priority 2011, dated 2021).

Molecular target: human PSMA (Homo sapiens (Human), UniProt Q04609)
Test: Enzymatic assay for in vitro evaluation of PSMA inhibitors (fluorescent assay of PSMA activity, NAAG substrate, OPA detection of glutamate)
Type: biochemical
Details: not given

Chain of human PSMA (Q04609 whole entry): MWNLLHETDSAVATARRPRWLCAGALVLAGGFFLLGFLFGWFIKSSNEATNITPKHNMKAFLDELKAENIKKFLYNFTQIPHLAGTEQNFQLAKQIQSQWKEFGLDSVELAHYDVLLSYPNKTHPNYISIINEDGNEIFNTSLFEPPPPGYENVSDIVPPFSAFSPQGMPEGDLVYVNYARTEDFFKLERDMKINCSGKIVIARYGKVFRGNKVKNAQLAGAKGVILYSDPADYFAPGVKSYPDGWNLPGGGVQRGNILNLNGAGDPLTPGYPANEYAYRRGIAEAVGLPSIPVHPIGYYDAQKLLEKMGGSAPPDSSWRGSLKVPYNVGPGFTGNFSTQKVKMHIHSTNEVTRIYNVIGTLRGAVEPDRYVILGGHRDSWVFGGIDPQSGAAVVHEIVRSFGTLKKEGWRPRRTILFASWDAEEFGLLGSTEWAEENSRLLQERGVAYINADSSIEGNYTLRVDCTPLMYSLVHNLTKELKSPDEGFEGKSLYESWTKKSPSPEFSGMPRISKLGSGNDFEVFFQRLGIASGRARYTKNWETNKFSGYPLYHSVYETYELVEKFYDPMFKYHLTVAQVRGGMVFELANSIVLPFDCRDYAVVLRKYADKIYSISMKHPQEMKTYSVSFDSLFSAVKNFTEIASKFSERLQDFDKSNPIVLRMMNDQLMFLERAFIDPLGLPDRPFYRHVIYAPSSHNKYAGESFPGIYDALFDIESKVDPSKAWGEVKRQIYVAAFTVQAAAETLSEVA

Compound	Ki
CCC1C(=O)N([C@@H](CCCCNC(=O)OCc2ccccc2)C(=O)O)C(=O)N([C@@H](CCC(=O)O)C(=O)O)C1=O (stereo partly drawn) [P078, (2S)-2-(3-((S)-5-(Benzyloxycarbonylamino)-1-carboxypentyl)-5-ethyl-2,4,6-trioxotetrahydropyrimidin-1(2H)-yl)pentanedioic Acid]	> 312 nM
CCC1(CC)C(=O)N([C@@H](CCCCNC(=O)OCc2ccccc2)C(=O)O)C(=O)N([C@@H](CCC(=O)O)C(=O)O)C1=O [P079, (S)-2-(3-((S)-5-(Benzyloxycarbonylamino)-1-carboxypentyl)-5,5-diethyl-2,4,6-trioxotetrahydropyrimidin-1(2H)-yl)pentanedioic Acid]	313 nM
O=NC1C(=O)N([C@@H](CCCCNC(=O)OCc2ccccc2)C(=O)O)C(=O)N([C@@H](CCC(=O)O)C(=O)O)C1=O (stereo partly drawn) [P088, (2S)-2-(3-((S)-5-(Benzyloxycarbonylamino)-1-carboxypentyl)-5-nitroso-2,4,6-trioxotetrahydropyrimidin-1(2H)-yl)pentanedioic Acid]	> 407 nM
O=C(O)CC[C@@H](C(=O)O)N1C(=O)C([N+](=O)[O-])C(=O)N([C@@H](CCCCNC(=O)OCc2ccc([N+](=O)[O-])cc2)C(=O)O)C1=O (stereo partly drawn) [P089, (2S)-2-(3-((S)-1-Carboxy-5-((((4-nitrobenzyl)oxy)carbonyl)amino)pentyl)-5-nitro-2,4,6-trioxotetrahydropyrimidin-1(2H)-yl)pentanedioic Acid]	> 407 nM
O=C(O)CC[C@H](NC(=O)CN(O)C(=O)CCCc1ccc(-n2cc(CCCF)nn2)cc1)C(=O)O [P090, (S)-2-(2-(4-(4-(4-(3-Fluoropropyl)-1H-1,2,3-triazol-1-yl)phenyl)-N-hydroxybutanamido)acetamido)pentanedioic Acid]	313 nM
O=C(O)CC[C@H](NC(=O)N(O)[C@@H](CCCCNC(=O)c1ccc(-n2cc(CCCF)nn2)cc1)C(=O)O)C(=O)O [P092, (S)-2-(3-((S)-1-Carboxy-5-(4-(4-(3-fluoropropyl)-1H-1,2,3-triazol-1-yl)benzamido)pentyl)-3-hydroxyureido)pentanedioic Acid]	31 nM
CN(C(=O)N[C@@H](CCC(=O)O)C(=O)O)[C@@H](CCCCNC(=O)CCCc1ccc(-n2cc(CCCF)nn2)cc1)C(=O)O [P103]	235 nM

Same assay, conditions: compound at 10 μM

Compound	PSMA Blkg % (10 μM)
CN(C(=O)N[C@@H](CCC(=O)O)C(=O)O)[C@@H](CCCCNC(=O)CCCCCn1cc(CCCF)nn1)C(=O)O [P080, (S)-2-(3-((S)-1-Carboxy-5-(6-(4-(3-fluoropropyl)-1H-1,2,3-triazol-1-yl)-hexamido)pentyl)-3-methylureido)pentanedioic Acid]	90%
O=C(O)CCC(NC(=O)N1CC(NC(=O)CCCCn2cc(CCCF)nn2)C[C@H]1C(=O)O)C(=O)O (stereo partly drawn) [P081, 2-((2S)-2-Carboxy-4-(5-(4-(3-fluoropropyl)-1H-1,2,3-triazol-1-yl)pentanamido)pyrrolidine-1-carboxamido)pentanedioic Acid]	25%
C[C@H](NC(=O)N[C@@H](CCC(=O)O)C(=O)O)C(=O)NCCF [P082, (S)-2-(3-((S)-1-((2-Fluoroethyl)amino)-1-oxopropan-2-yl)ureido)pentanedioic Acid]	4%
CN(CCCC[C@H](NC(=O)N[C@@H](CCC(=O)O)C(=O)O)C(=O)O)C(=O)OCc1ccccc1 [P083, (9S,13S)-4-Methyl-3,11-dioxo-1-phenyl-2-oxa-4,10,12-triazapentadecane-9,13,15-tricarboxylic Acid]	100%
O=C(O)CC[C@@H](C(=O)O)n1c(=O)[nH]c(=O)n([C@@H](CCCCNC(=O)OCc2ccccc2)C(=O)O)c1=O [P084, (S)-2-(3-((S)-5-(Benzyloxycarbonylamino)-1-carboxypentyl)-2,4,6-trioxo-1,3,5-triazinan-1-yl)pentanedioic Acid]	19%
Cn1c(=O)n([C@@H](CCCCNC(=O)OCc2ccccc2)C(=O)O)c(=O)n([C@@H](CCC(=O)O)C(=O)O)c1=O [P085, (S)-2-(3-((S)-5-(Benzyloxycarbonylamino)-1-carboxypentyl)-5-methyl-2,4,6-trioxo-1,3,5-triazinan-1-yl)pentanedioic Acid]	0%
CN1C(=O)N(C(CCC(=O)O)C(=O)O)C(=O)[C@@H]1CCCCNC(=O)c1ccc(N=[N+]=[N-])cc1 (stereo partly drawn) [P086, 2-((S)-4-(4-(4-Azidobenzamido)butyl)-3-methyl-2,5-dioxoimidazolidin-1-yl)-pentanedioic Acid]	25%
Cc1nc(N[C@@H](CCC(=O)O)C(=O)O)sc1C(=O)O [P087, (S)-2-((5-Carboxy-4-methylthiazol-2-yl)amino)pentanedioic Acid]	3%
O=C(O)CC[C@H](NC(=O)CN(O)C(=O)CCCc1ccc(-n2cc(CCCF)nn2)cc1)C(=O)O [P090, (S)-2-(2-(4-(4-(4-(3-Fluoropropyl)-1H-1,2,3-triazol-1-yl)phenyl)-N-hydroxybutanamido)acetamido)pentanedioic Acid]	85%
NC1C(=O)N([C@@H](CCCCNC(=O)OCc2ccccc2)C(=O)O)C(=O)N([C@@H](CCC(=O)O)C(=O)O)C1=O (stereo partly drawn) [P091, (2S)-2-(5-Amino-3-((S)-5-(benzyloxycarbonylamino)-1-carboxypentyl)-2,4,6-trioxotetrahydropyrimidin-1(2H)-yl)pentanedioic Acid]	23%
O=C(O)CC[C@H](NC(=O)N(O)[C@@H](CCCCNC(=O)c1ccc(-n2cc(CCCF)nn2)cc1)C(=O)O)C(=O)O [P092, (S)-2-(3-((S)-1-Carboxy-5-(4-(4-(3-fluoropropyl)-1H-1,2,3-triazol-1-yl)benzamido)pentyl)-3-hydroxyureido)pentanedioic Acid]	99%
O=C(O)CC[C@H](NC(=O)CN(O)C(=O)CCCCn1cc(CCCF)nn1)C(=O)O [P093, (S)-2-(2-(5-(4-(3-Fluoropropyl)-1H-1,2,3-triazol-1-yl)-N-hydroxypentanamido)-acetamido)pentanedioic Acid]	16%
O=C(O)CC[C@@H](C(=O)O)N1C(=O)CC(=O)N([C@@H](CCCCNC(=O)CCCc2ccc(-n3cc(CCCF)nn3)cc2)C(=O)O)C1=O [P094, (S)-2-(3-((S)-1-Carboxy-5-(4-(4-(4-(3-fluoropropyl)-1H-1,2,3-triazol-1-yl)phenyl)butanamido)pentyl)-2,4,6-trioxotetrahydropyrimidin-(2H)-yl)pentanedioic Acid]	7%
O=C(O)CC[C@@H](C(=O)O)N1C(=O)CC(=O)N(Cc2ccccc2)C1=O [P095, (S)-2-(3-Benzyl-2,4,6-trioxotetrahydropyrimidin-1(2H)-yl)pentanedioic Acid]	4%
O=C(O)CC[C@@H](C(=O)O)N1C(=O)/C(=C(/O)Cn2cc(CCCF)nn2)C(=O)N(Cc2ccccc2)C1=O [P096, (S,E)-2-(3-Benzyl-5-(2-(4-(3-fluoropropyl)-1H-1,2,3-triazol-1-yl)-1-hydroxyethylidene)-2,4,6-trioxotetrahydropyrimidin-1(2H)-yl)pentanedioic Acid]	3%
O=C(O)CCC(NC(=O)C(=O)N[C@@H](CCC(=O)O)C(=O)O)C(=O)O (stereo partly drawn) [P098, (2′S)-2,2′-(Oxalylbis(azanediyl))dipentanedioic Acid]	23%
O=C(O)CCC(NS(=O)(=O)N[C@@H](CCC(=O)O)C(=O)O)C(=O)O (stereo partly drawn) [P099, (2S)-2,2′-(Sulfonylbis(azanediyl))dipentanedioic Acid]	0%
O=C(O)CC[C@H](NC(=O)NNC(=O)CCCc1ccc(-n2cc(CCCF)nn2)cc1)C(=O)O [P100, (S)-2-(2-(4-(4-(4-(3-Fluoropropyl)-1H-1,2,3-triazol-1-yl)phenyl)butanoyl)-hydrazinecarboxamido)pentanedioic Acid]	3%
O=C(O)CC[C@@H](C(=O)O)N1C(=O)/C(=C(\O)CCCc2ccc(-n3cc(CCCF)nn3)cc2)C(=O)N(Cc2ccccc2)C1=O [P101, (S,Z)-2-(3-Benzyl-5-(4-(4-(4-(3-fluoropropyl)-1H-1,2,3-triazol-1-yl)phenyl)-1-hydroxybutylidene)-2,4,6-trioxotetrahydropyrimidin-1(2H)-yl)pentanedioic Acid]	0%
O=C(O)CC[C@@H](C(=O)O)N1C(=O)/C(=C(\O)CCCCn2cc(CCCF)nn2)C(=O)N(Cc2ccccc2)C1=O [P102, (S,Z)-2-(3-Benzyl-5-(5-(4-(3-fluoropropyl)-1H-1,2,3-triazol-1-yl)-1-hydroxypentylidene)-2,4,6-trioxotetrahydropyrimidin-1(2H)-yl)pentanedioic Acid]	0%
CN(C(=O)N[C@@H](CCC(=O)O)C(=O)O)[C@@H](CCCCNC(=O)CCCc1ccc(-n2cc(CCCF)nn2)cc1)C(=O)O [P103]	91%
CCC1(CC)C(=O)N([C@@H](CCCCN(Cc2ccc([N+](=O)[O-])cc2)Cc2ccc([N+](=O)[O-])cc2)C(=O)O)C(=O)N([C@@H](CCC(=O)O)C(=O)O)C1=O [P104, (S)-2-(3-((S)-5-(Bis(4-nitrobenzyl)amino)-1-carboxypentyl)-5,5-diethyl-2,4,6-trioxotetrahydropyrimidin-1(2H)-yl)pentanedioic Acid]	7%
CCC1(CC)C(=O)N([C@@H](CCCCN(Cc2ccc([N+](=O)[O-])cc2)C(=O)CCCCn2cc(CCCF)nn2)C(=O)O)C(=O)N([C@@H](CCC(=O)O)C(=O)O)C1=O [P105, (S)-2-(3-((S)-1-Carboxy-5-(5-(4-(3-fluoropropyl)-1H-1,2,3-triazol-1-yl)-N-(4-nitrobenzyl)pentanamido)pentyl)-5,5-diethyl-2,4,6-trioxotetrahydropyrimidin-1(2H)-yl)pentanedioic Acid]	5%
O=C(O)CC[C@@H](C(=O)O)N1C(=O)N([C@@H](CCCCNC(=O)OCc2ccccc2)C(=O)O)C(=O)C2(CCC2)C1=O [P106, (2S)-2-(8-((S)-5-(Benzyloxycarbonylamino)-1-carboxypentyl)-5,7,9-trioxo-6,8-diazaspiro[3.5]nonan-6-yl)pentanedioic Acid]	67%
CCC1(CC)C(=O)N([C@@H](CCCCNS(=O)(=O)c2ccc([N+](=O)[O-])cc2)C(=O)O)C(=O)N([C@@H](CCC(=O)O)C(=O)O)C1=O [P107, (S)-2-(3-((S)-1-Carboxy-5-(4-nitrophenylsulfonamido)pentyl)-5,5-diethyl-2,4,6-trioxotetrahydropyrimidin-1(2H)-yl)pentanedioic Acid]	19%
CCC1(CC)C(=O)N([C@@H](CCCCNC(=O)NCc2ccccc2)C(=O)O)C(=O)N([C@@H](CCC(=O)O)C(=O)O)C1=O [P108, (S)-2-(3-((S)-5-(3-benzylureido)-1-carboxypentyl)-5,5-diethyl-2,4,6-trioxotetrahydropyrimidin-1(2H)-yl)pentanedioic Acid]	11%
O=C(O)CCC(C(=O)O)n1cc(COc2ccc3ccc(=O)oc3c2)nn1 (stereo not shown) [P109, 2-(4-(((2-oxo-2H-chromen-7-yl)oxy)methyl)-1H-1,2,3-triazol-1-yl)pentanedioic Acid]	24%
